Converted amounts (≈) assume the structure as drawn. Like-named read-outs stand apart in the source and are kept apart here.
Legend:
MSSA = assay: MIC, broth microdilution, clinical isolates: MSSA; type: cell-based; settings: Staphylococcus aureus
Procedure: (§1) To assess the MICs for antibiotic susceptibility, Gram-positive bacteria isolated from human clinical specimens were obtained from several general hospitals in Seoul, Korea, during 2002–2018. Staphylococcus aureus Giorgio and Streptococcus pneumoniae ATCC49619 were used to test in vivo efficacies against […], in mice.
(§2) The MICs of the antimicrobial agents were determined by a twofold microdilution broth method, as described by the Clinical and Laboratory Standards Institute. Briefly, test organisms were grown on Mueller–Hinton agar (MHA, BD Difco, Sparks, MD, USA) plates, subcultured into cation-adjusted Mueller–Hinton broth (CAMHB, BD Difco, Sparks, MD, USA), and incubated for 18 h at 35 °C. For S. pneumoniae culture, 5% sheep blood (Hanil Comed, Seongnam, Korea) was added. The cultured bacteria were diluted using phosphate-buffered saline (PBS) to achieve a bacterial cell density of approximately 5 × 10^6 CFU/mL. All test organisms were loaded into 96-well plates containing serial dilutions of the antimicrobial agents to achieve a concentration of 5 × 10^4 CFU/well. The plates were incubated at 35 °C for 18–20 h and examined for bacterial growth.

MRSA = assay: MIC, broth microdilution, clinical isolates: MRSA; type: cell-based, Staphylococcus aureus; settings: for MIC50 / MIC90: Staphylococcus aureus, MRSA
Procedure: as §1, §2

[1] = tested on: CNS (coagulase-negative staphylococci); assay: MIC, broth microdilution, clinical isolates: CNS; type: cell-based
Procedure: as §1, §2

VRE = assay: MIC, broth microdilution, clinical isolates: VRE; type: cell-based, vancomycin-resistant Enterococcus; settings: Enterococcus, VRE
Procedure: as §1, §2

S. pneumoniae = assay: MIC, broth microdilution, clinical isolates: S. pneumoniae; type: cell-based, Streptococcus pneumoniae
Procedure: as §1, §2

[2] = tested on: Vancomycin-sensitive E. faecalis; assay: MIC, broth microdilution, clinical isolates: vancomycin-sensitive E. faecalis; type: cell-based, Enterococcus faecalis; settings: Enterococcus faecalis
Procedure: as §1, §2

[3] = tested on: Vancomycin-sensitive E. faecium; assay: MIC, broth microdilution, clinical isolates: vancomycin-sensitive E. faecium; type: cell-based, Enterococcus faecium; settings: Enterococcus faecium
Procedure: as §1, §2

S. aureus Giorgio [4] = assay: MIC against S. aureus Giorgio; type: cell-based, Staphylococcus aureus; settings: Staphylococcus aureus
Procedure: as §2

S. pneumoniae ATCC49619 [5] = assay: MIC against S. pneumoniae ATCC49619; type: cell-based; settings: Streptococcus pneumoniae, ATCC49619
Procedure: as §2

MRSA CCARM 3167 [6] = assay: MIC against MRSA CCARM 3167; type: cell-based; settings: Staphylococcus aureus
Procedure: as §2

VRE 3 [7] = assay: MIC against VRE 3; type: cell-based, vancomycin-resistant Enterococcus; settings: Enterococcus
Procedure: as §2

S. aureus Giorgio [8] = assay: Time-kill assay, S. aureus Giorgio; type: cell-based, Staphylococcus aureus
Procedure: (§3) Time-kill analysis was performed by the NCCLS M26-A method. The test organisms (S. aureus Giorgio, S. pneumoniae ATCC49619, MRSA CCARM 3167, and VRE 3) incubated in CAMHB for 18 h at 35 °C were diluted to 10^5 CFU/mL with fresh CAMHB, and the diluted cultures were preincubated for 2 h. For S. pneumoniae culture, 5% sheep blood (Hanil Comed, Seongnam, Korea) was added. […] Culture aliquots (0.1 mL) were removed after 0, 2, 4, 6 and 24 h of incubation, and serial 10-fold dilutions were prepared in saline as needed. The numbers of viable cells were determined on drug-free MHA plates after 20 h of incubation. A compound was considered bactericidal if the original inoculum was reduced by 3 log CFU/mL (99.9%) at each concentration or was considered bacteriostatic if the inoculum was reduced by 0–3 log CFU/mL.

S. pneumoniae ATCC49619 [9] = assay: Time-kill assay, S. pneumoniae ATCC49619; type: cell-based, Streptococcus pneumoniae
Procedure: as §3

MRSA CCARM 3167 [10] = assay: Time-kill assay, MRSA CCARM 3167; type: cell-based, Staphylococcus aureus
Procedure: as §3

VRE 3 [11] = assay: Time-kill assay, VRE 3; type: cell-based, vancomycin-resistant Enterococcus
Procedure: as §3

S. aureus Giorgio [12] = assay: Neutropenic mouse thigh infection model; type: in vivo, female ICR mice
Procedure: (§4) For the respiratory tract infection model, neutropenic mice were anesthetized and intranasally inoculated with a 50 μL suspension of S. pneumoniae ATCC49619 (4.4 × 10^8 CFU/mL). For the thigh infection model, the neutropenic mice were administered an intramuscular injection of a 100 μL suspension of S. aureus Giorgio (1 × 10^6 CFU/mL) into both thighs. For both models, four mice were included in each group. At 2 h after infection, two mice were sacrificed, and the infected thighs or lungs (n = 4) were excised to determine the initial bacterial levels. […] At 24 h after infection, the mice were sacrificed by cervical dislocation; their thighs or lungs were removed, homogenized, serially diluted with saline, and plated onto MHA to count the number of bacteria remaining. The number of viable bacterial cells (CFU) in the thighs or lungs of vehicle- and drug-treated mice was determined.

S. pneumoniae ATCC49619 [13] = assay: Neutropenic mouse respiratory tract infection model; type: in vivo, female ICR mice; settings: for reduction of the starting bacterial burden compared to the 2-h control group: second trial
Procedure: as §4

in vivo = settings: female, ICR, mouse, plasma
S. aureus = tested on: S. aureus; parameters: method as in PMID 28416551; settings: s.c., cited from earlier work
[14] = cited from earlier work
[15] = 32 clinical isolates, read-out: MIC50
[16] = 32 clinical isolates, read-out: MIC90
[17] = s.c. 4 and 20 mg/kg at 3 and 6 h after infection

## CO[C@@H](C(N)=O)[C@H](NC(=O)c1ccc(NC(=O)c2ccc([N+](=O)[O-])cc2)cc1)C(=O)Nc1ccc(C(=O)Nc2ccc(C(=O)Nc3ccc(C(=O)O)cc3OC(C)C)c(O)c2OC(C)C)cc1 [DH-coralmycin A]
MSSA; 26 clinical isolates, read-out: MIC50
  MIC50: 1 µg/mL (≈ 1.09 µM)
MSSA; 26 clinical isolates, read-out: MIC90
  MIC90: 2 µg/mL (≈ 2.17 µM)
MRSA; 42 clinical isolates, read-out: MIC50
  MIC50: 4 µg/mL (≈ 4.35 µM)
MRSA; 42 clinical isolates, read-out: MIC90
  MIC90: 8 µg/mL (≈ 8.7 µM)
MRSA; against MRSA, CNS, and VRE
  times less active than coralmycin A as evidenced by the MIC90: 8 to 16 times
[1]; 31 clinical isolates, read-out: MIC50
  MIC50: 1 µg/mL (≈ 1.09 µM)
[1]; 31 clinical isolates, read-out: MIC90
  MIC90: 16 µg/mL (≈ 17.4 µM)
VRE; 46 clinical isolates, read-out: MIC50
  MIC50: 4 µg/mL (≈ 4.35 µM)
VRE; 46 clinical isolates, read-out: MIC90
  MIC90: 16 µg/mL (≈ 17.4 µM)
S. pneumoniae; Streptococcus pneumoniae, 27 clinical isolates, read-out: MIC50
  MIC50: 0.5 µg/mL (≈ 0.544 µM)
S. pneumoniae; Streptococcus pneumoniae, 27 clinical isolates, read-out: MIC90
  MIC90: 4 µg/mL (≈ 4.35 µM)
[2]; [15]
  MIC50: 2 µg/mL (≈ 2.17 µM)
[2]; [16]
  MIC90: 4 µg/mL (≈ 4.35 µM)
[3]; [15]
  MIC50: 1 µg/mL (≈ 1.09 µM)
[3]; [16]
  MIC90: 4 µg/mL (≈ 4.35 µM)
S. aureus Giorgio [4]; read-out: MIC
  MIC: 0.06 µg/mL (≈ 0.0652 µM)
S. pneumoniae ATCC49619 [5]; read-out: MIC
  MIC: 0.25 µg/mL (≈ 0.272 µM)
MRSA CCARM 3167 [6]; read-out: MIC
  MIC: 0.25 µg/mL (≈ 0.272 µM)
VRE 3 [7]; read-out: MIC
  MIC: 2 µg/mL (≈ 2.17 µM)
S. aureus Giorgio [8]; 1× MIC
  time-kill activity: bacteriostatic (considered bacteriostatic if the inoculum was reduced by 0–3 log CFU/mL)
S. aureus Giorgio [8]; 2× and 4× MIC, 24 h
  time-kill activity: bactericidal (considered bactericidal if the original inoculum was reduced by 3 log CFU/mL (99.9%) at each concentration)
S. pneumoniae ATCC49619 [9]; 1× MIC
  time-kill activity: bacteriostatic (considered bacteriostatic if the inoculum was reduced by 0–3 log CFU/mL)
S. pneumoniae ATCC49619 [9]; 2× and 4× MIC, 24 h
  time-kill activity: bactericidal (considered bactericidal if the original inoculum was reduced by 3 log CFU/mL (99.9%) at each concentration)
MRSA CCARM 3167 [10]; 1× MIC
  time-kill activity: bacteriostatic (considered bacteriostatic if the inoculum was reduced by 0–3 log CFU/mL)
MRSA CCARM 3167 [10]; 2× and 4× MIC, 24 h
  time-kill activity: bactericidal (considered bactericidal if the original inoculum was reduced by 3 log CFU/mL (99.9%) at each concentration)
VRE 3 [11]; 1× MIC
  time-kill activity: bacteriostatic (considered bacteriostatic if the inoculum was reduced by 0–3 log CFU/mL)
VRE 3 [11]; 2× and 4× MIC, 24 h
  time-kill activity: bactericidal (considered bactericidal if the original inoculum was reduced by 3 log CFU/mL (99.9%) at each concentration)
S. aureus Giorgio [12]; 20 mg/kg bid
  antibacterial effect in thigh infection model: almost no antibacterial effect
S. aureus Giorgio [12]; [17]
  antibacterial effect in thigh infection model: almost no antibacterial effect
S. pneumoniae ATCC49619 [13]; 4 mg/kg bid s.c.
  in vivo effect (bacteriostatic or bactericidal): static effect
S. pneumoniae ATCC49619 [13]; 20 mg/kg bid s.c.
  in vivo effect (bacteriostatic or bactericidal): static effect
S. pneumoniae ATCC49619 [13]; 100 mg/kg bid s.c.
  in vivo effect (bacteriostatic or bactericidal): bactericidal effects
S. pneumoniae ATCC49619 [13]; first experiment, s.c. 4 and 20 mg/kg at 3 and 6 h after infection
  antibacterial effect in respiratory tract infection model: significant antibacterial effects
S. pneumoniae ATCC49619 [13]; s.c. 100 mg/kg bid
  reduction of the starting bacterial burden compared to the 2-h control group: 0.96 log10 CFU/lung
In vivo; iv, 2 mg/kg
  half-life: 2.16 ± 1.08 h
In vivo; sc, 20 mg/kg
  half-life: 7.01 ± 1.22 h

## CN[C@H](CC(C)C)C(=O)N[C@H]1C(=O)N[C@@H](CC(N)=O)C(=O)N[C@H]2C(=O)N[C@H]3C(=O)N[C@H](C(=O)N[C@H](C(=O)O)c4cc(O)cc(O)c4-c4cc3ccc4O)[C@H](O)c3ccc(c(Cl)c3)Oc3cc2cc(c3O[C@@H]2O[C@H](CO)[C@@H](O)[C@H](O)[C@H]2O[C@H]2C[C@](C)(N)[C@H](O)[C@H](C)O2)Oc2ccc(cc2Cl)[C@H]1O [Vancomycin]
MSSA
  MIC50: 1 µg/mL (≈ 0.69 µM)
  MIC90: 2 µg/mL (≈ 1.38 µM)
MRSA
  MIC50: 1 µg/mL (≈ 0.69 µM)
  MIC90: 2 µg/mL (≈ 1.38 µM)
[1]
  MIC50: 2 µg/mL (≈ 1.38 µM)
  MIC90: 4 µg/mL (≈ 2.76 µM)
VRE
  MIC50: > 32 µg/mL
  MIC90: > 32 µg/mL
S. pneumoniae; 27 clinical isolates
  MIC90: 0.5 µg/mL (≈ 0.345 µM)
S. pneumoniae; Streptococcus pneumoniae
  MIC50: 0.25 µg/mL (≈ 0.173 µM)
  MIC90: 0.5 µg/mL (≈ 0.345 µM)
[2]
  MIC50: 2 µg/mL (≈ 1.38 µM)
  MIC90: 2 µg/mL (≈ 1.38 µM)
[3]
  MIC50: 1 µg/mL (≈ 0.69 µM)
  MIC90: 2 µg/mL (≈ 1.38 µM)
S. aureus Giorgio [4]
  MIC: 2 µg/mL (≈ 1.38 µM)
S. pneumoniae ATCC49619 [5]
  MIC: 0.5 µg/mL (≈ 0.345 µM)
MRSA CCARM 3167 [6]
  MIC: 2 µg/mL (≈ 1.38 µM)
VRE 3 [7]
  MIC: 64 µg/mL (≈ 44.2 µM)
S. aureus Giorgio [8]; 2× and 4× MIC, 24 h
  time-kill activity: bactericidal (considered bactericidal if the original inoculum was reduced by 3 log CFU/mL (99.9%) at each concentration)
S. pneumoniae ATCC49619 [9]; 2× and 4× MIC, 24 h
  time-kill activity: bactericidal (considered bactericidal if the original inoculum was reduced by 3 log CFU/mL (99.9%) at each concentration)
MRSA CCARM 3167 [10]; 2× and 4× MIC, 24 h
  time-kill activity: bactericidal (considered bactericidal if the original inoculum was reduced by 3 log CFU/mL (99.9%) at each concentration)
S. aureus Giorgio [12]; [17]
  antibacterial effect in thigh infection model: bacteriostatic activity
S. pneumoniae ATCC49619 [13]; 4 mg/kg bid s.c.
  in vivo effect (bacteriostatic or bactericidal): bacteriostatic
S. pneumoniae ATCC49619 [13]; 20 mg/kg bid s.c.
  in vivo effect (bacteriostatic or bactericidal): bactericidal
S. pneumoniae ATCC49619 [13]; 20 mg/kg bid
  reduction of the starting bacterial burden compared to the 2-h control group: 1.46 log10 CFU/lung
S. aureus; high doses of 20–320 mg/kg bid
  in vivo effect: bactericidal effects
S. aureus; low doses of 0.3–5 mg/kg bid
  in vivo effect: bacteriostatic effects
[14]
  bound to plasma proteins: 10–50%

— publication PMC9311539, “Antibacterial Activity against Clinical Isolates and In Vivo Efficacy of Coralmycins” (Antibiotics, 2022)
